Each compound was assayed on heart failure rats (assay: Cardiac function with ACE inhibitor captopril and APJ agonist in heart failure rats in vivo). Details: captopril alone, acute settings.
Set-up: species or system rat
Description: The interaction between […] (ACE2) and Apelin biology is complicated. To investigate the interaction between the Apelin-APJ and ACE signalling pathways, we examined the improvement in cardiac function with APJ small molecule agonists in the presence of ACE inhibitor captopril in heart failure rats in vivo. […] However, in the presence of an APJ agonist, there was a shift in potency to the left with marked improvement in contractility and ejection fraction without changes in heart rate. These findings provide a new reference for the understanding of the regulation of ACE2 for the renin angiotensin aldosterone system (RAAS), independent of AT1R signaling and offer new potential drug targets for the treatment of diseases such as hypertension and heart failure. This work clearly establishes that combination of an agonist of the APJ receptor with an ARB such as losartan and/or with an ACE inhibitor such as captopril which may play an important role in providing greater efficacy in treating heart failure patients, for example in improving contractility and ejection fraction without changing the heart rate.
In the case of C[C@H](CS)C(=O)N1CCC[C@H]1C(=O)O [Captopril, captopril], the “contractility or ejection fraction” value is reported as “does not show a marked improvement in contractility or ejection fraction”.

These compounds were tested against human APJ-AT1R (angiotensin Type 1) double stable CHO cell line (Homo sapiens (Human), UniProt P35414) (assay: IP1 accumulation (TR-FRET), AngII cooperativity, APJ-AT1R double stable cells). Details: APJ small molecule agonists in the presence of AngII.
human APJ-AT1R (angiotensin Type 1) double stable CHO cell line, sequence (P35414 whole entry): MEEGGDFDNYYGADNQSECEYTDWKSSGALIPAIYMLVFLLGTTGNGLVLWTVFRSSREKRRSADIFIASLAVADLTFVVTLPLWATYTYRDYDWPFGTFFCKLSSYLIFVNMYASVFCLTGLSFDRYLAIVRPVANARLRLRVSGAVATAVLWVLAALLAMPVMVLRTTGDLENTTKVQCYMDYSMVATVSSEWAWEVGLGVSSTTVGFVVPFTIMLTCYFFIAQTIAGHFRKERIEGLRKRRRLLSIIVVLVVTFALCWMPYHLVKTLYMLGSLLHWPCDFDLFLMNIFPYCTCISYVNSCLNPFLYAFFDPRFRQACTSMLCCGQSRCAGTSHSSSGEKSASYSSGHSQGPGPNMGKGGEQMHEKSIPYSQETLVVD
Format: cell-based
Description: Single and double stable recombinant cell lines were generated for human APJ and the AT1R receptor in CHO K1 cells tagged either with FLAG or hemagglutinin (HA) tag. Briefly, the CHO-K1 APJ/AT1R cells were seeded in culture medium of DMEM-F12 and 10% FBS at a density of 15 k/well in a 96 well plate overnight. The next day, the culture medium was replaced with medium containing no serum for 4 h. The compound AngII at a range of concentrations (1 pM-10 μM) with or without different concentrations of APJ agonists were diluted in stimulation buffer and added to the cell plate. The plate was sealed and incubated for 1 h. This was followed by addition of IP-d2 conjugate followed by europium cryptate antibody conjugate into the wells. The plate was sealed, followed with incubation for 2 h at RT. Time-resolved fluorescence resonance energy (TR-FRET) at 620 nm and 665 nm was measured after 2 h with an Envision reader. The signal ratios and delta F were calculated and the amount of IP1 produced was inversely proportional to the TR-FRET ratio, 665/620 nm.
For CCCCc1nc(Cl)c(CO)n1Cc1ccc(-c2ccccc2-c2nn[nH]n2)cc1 [losartan], the “effect of losartan on APJ agonist induced cooperativity” value was “relieved this cooperativity”.

Each compound was assayed against human APJ receptor (Homo sapiens (Human), UniProt P35414) (assay: biochemical). Details: not given.
human APJ receptor, sequence (P35414 whole entry): as above
Format: biochemical
Method in brief: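 [35S]GTPγS binding to membranes from CHO cells stably expressing human APJ, captured on WGA PS beads (5 μg/well). Buffer: 20 mM HEPES pH 7.5, 5 mM MgCl2, 100 mM NaCl, 0.1% BSA, with 3 μM GDP and 0.1 nM [35S]GTPγS final; compounds tested as 22-point 2-fold dilutions.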
[2H]C([2H])([2H])OCc1nnc(NS(=O)(=O)[C@@H](C)[C@@H](OC(C)C)c2ncc(C)cn2)n1-c1c(OC)cccc1OC [Example 152.0] was tested, and the EC50 was 6.1 nM.

Same assay, conditions: [35S]GTPγS binding, membranes from CHO cells stably expressing human APJ receptor; read-out: Activity hAPJ SPA EC50 IP
In the case of COCc1nnc(NS(=O)(=O)[C@@H](C)[C@@H](OC(C)C)c2ccc(C)cn2)n1-c1c(OC)cccc1OC [Example 155.0], the EC50 is reported as 12 nM. Work on COCCn1c(COC)nnc1NS(=O)(=O)[C@@H](C)[C@H](OC)c1ncc(Cl)cn1 [Example 156.0] yielded an EC50 of 520 nM. Work on COCc1nnc(NS(=O)(=O)[C@@H](C)[C@H](OC)c2ncc(Cl)cn2)n1-c1c(Cl)cccc1Cl [Example 157.0] yielded an EC50 greater than 12500 nM. COc1ccc(Cl)c(-n2c(COC(F)F)nnc2NS(=O)(=O)[C@@H](C)[C@H](OC)c2ncc(Cl)cn2)c1 [Example 160.0] showed an EC50 of 21 nM. In the case of COCc1nnc(NS(=O)(=O)[C@@H](C)[C@H](C)c2ncc(Cl)cn2)n1-c1cc(OC)ccc1Cl [Example 162.0], the EC50 is reported as 24 nM. COCc1nnc(NS(=O)(=O)[C@@H](C)[C@@H](OC(C)C)c2ncc(C)cn2)n1-c1cc(OC)ccc1Cl [Example 163.0] showed an EC50 of 40 nM. CCCCc1nnc(NS(=O)(=O)[C@@H](C)[C@H](C)c2ncc(Cl)cn2)n1-c1c(OC)cccc1OC [Example 164.0] was tested, and the EC50 was 0.84 nM. Work on CCCCc1nnc(NS(=O)(=O)[C@@H](C)[C@H](OC)c2ncc(C)cn2)n1-c1c(OC)cccc1OC [Example 175.0] yielded an EC50 of 1.7 nM. CCCCc1nnc(NS(=O)(=O)[C@@H](C)[C@H](C)c2ncc(C)cn2)n1-c1c(OC)cccc1OC [Example 176.0] gave an EC50 of 1.9 nM. With “(1R,2S)-1-(5-chloro-2-pyrimidinyl)-N-(5-((1R)-1-cyclopropylethyl)-4-(4,6-dimethoxy-5-pyrimidinyl)-4H-1,2,4-triazol-3-yl)-1-methoxy-2-propanesulfonamide and (1R,2S)-1-(5-chloro-2-pyrimidinyl)-N-(5-((1S)-1-cyclopropylethyl)-4-(4,6-dimethoxy-5-pyrimidinyl)-4H-1,2,4-triazol-3-yl)-1-methoxy-2-propanesulfonamide [Example 167.0]” the EC50 was 110 nM. “(1R,2S)-1-(5-chloropyrimidin-2-yl)-1-methoxy-N-(4-(1-methylaclopropyl)-5-(((R)-tetrahydrofurcan-2-yl)methyl)-4H-l,2,4-triazol-3-yl)propane-2-sulfonainide or (1R,2S)-1-(5-chloroprimidin-2-yl)-1-methoxy-N-(4-(1-methylcyclopropyl)-5-(((S)-tetrahydrofuran-2-yl)methyl)-4H-l,2.4-triazol-3-yl)propane-2-sulfonamide [Example 56.0]” gave an EC50 of 420 nM. “(1R.2S)-1-(5-chloropyrimidin-2-yl)-1-methoxy-N-(4-(1-methylcyclopropyl)-5-(((R)-tetrahydrofuran-2-yl)methyl)-4H-1,2,4-triazol-3-yl)propane-2-sulfonamide or (1R,2S)-1-(5-chloropyrimidin-2-yl)-1-methoxy-N-(4-(1-methylcyclopropyl)-5-(((S)-tetrahydrofuran-2-yl)methyl)-4H-1,2,4-triazol-3-yl)propane-2-sulfonamide [Example 57.0]” showed an EC50 of 42 nM. In the case of “(S)-N-(4-(2,6-dimethoxyphenyl)-5-(methoxymethyl)-4H-1,2,4-triazol-3-yl)-1-(5-fluoropyrimidin-2-yl)piperidine-3-sulfonamide or (R)-N-(4-(2,6-dimethoxyphenyl)-5-(methoxymethyl)-4H-1,2,4-triazol-3-yl)-1-(5-fluoropyrimidin-2-yl)piperidine-3-sulfonamide [Example 77.0]”, the EC50 is reported as 176 nM. “(S)-N-(4-(2,6-dimethoxyphenyl)-5-(methoxymethyl)-4H-1,2,4-triazol-3-yl)-l-(5-fluoropyrimidin-2-yl)piperidine-3-sulfonamide or (R)-N-(4-(2,6-dimethoxyphenyl)-5-(methoxymethyl)-4H-1,2,4-triazol-3-yl)-l-(5-fluoropyrimidin-2-yl)piperidine-3-sulfonamide [Example 78.0]” showed an EC50 of 615 nM.

Same assay, conditions: read-out: Activity hAPJ SPA EC50 IP
COCc1nnc(NS(=O)(=O)[C@@H](C)[C@@H](OC(C)C)c2ncc(F)cn2)n1-c1c(OC)cccc1OC [Example 154.0] showed an EC50 of 6.6 nM. For COc1cccc(OC)c1-n1c(COC(C)C)nnc1NS(=O)(=O)[C@@H](C)[C@H](C)c1ncc(Cl)cn1 [Example 161.0], the EC50 was 2.2 nM. For CCCCc1nnc(NS(=O)(=O)[C@@H](C)[C@H](OC)c2ncc(Cl)cn2)n1-c1c(OC)cccc1OC [Example 174.0], the EC50 was 0.3 nM.
